Experimental data taken from patent US20090247558A1, “USE OF THE CRH (CORTICOTROPIN RELEASING HORMONE) - UCN (UROCORTIN) SYSTEM IN THE TREATMENT OF INFLAMMATORY DISEASES” (priority 2002, published 2009).
Residue numbers refer to the chain shown, from its start. “Also recorded” adds a separate entry of the source. No end group written: not given here.

Assays:
CRH-R2 receptor = biological target: T1, CRH-R2 receptor (Mus musculus, UniProt Q60748); details: cited from earlier work
T1 construct: monocyte/macrophage cells which express both the CRH-R1 and the CRH-R2 receptors on the surface; endogenous in cells; host or cells: macrophages
T1 sequence (Q60748 whole entry): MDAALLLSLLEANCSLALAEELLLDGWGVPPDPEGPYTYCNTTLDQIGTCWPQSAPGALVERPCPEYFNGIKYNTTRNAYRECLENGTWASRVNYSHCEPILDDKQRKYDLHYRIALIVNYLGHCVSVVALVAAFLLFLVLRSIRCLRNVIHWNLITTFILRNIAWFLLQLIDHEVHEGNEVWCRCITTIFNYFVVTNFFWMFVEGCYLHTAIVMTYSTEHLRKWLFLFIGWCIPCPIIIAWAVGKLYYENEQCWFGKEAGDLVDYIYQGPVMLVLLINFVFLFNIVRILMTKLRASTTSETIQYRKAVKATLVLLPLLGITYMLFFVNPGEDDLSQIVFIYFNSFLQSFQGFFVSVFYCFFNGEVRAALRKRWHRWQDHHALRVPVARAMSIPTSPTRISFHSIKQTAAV

RAW264.7 cells [1] = test: LPS-induced cytokine secretion from RAW264.7 macrophages (ELISA); assay type: cell-based, mouse
Procedure: (§1) RAW 264.7 cells were cultured in Dulbecco's Modified Eagle Medium supplemented with 10% fetal calf serum (FCS), 10 mM L-glutamine, 100 U/ml penicillin, 0.1 mg/ml streptomycin (all purchased by Gibco), at 5% CO2 and 37° C. Cells were plated in 25 cm^2 flasks one day prior to stimulation. Cells were then stimulated with 10 μg/ml Ecoli-derived LPS (serotype 0111:B4, cat. # L2630, Sigma) and recombinant CRH (Sigma) at a concentration of 10^−8 M.
(§2) Serum from trunk blood was collected as follows: a) for the determination of TNF-α 1 hour after LPS administration and b) at 4 hours for the determination of IL-1β or IL-6 levels. Each time point and treatment group was composed of five animals per experiment. Sera were collected and frozen until used for cytokine determination by ELISA according to manufacturer (R&D, NE, USA). Similarly, cell culture supernatants were collected 24 hours following stimulation and stored at −70° C. until analyzed. Corticosterone was measured by RIA in serum collected 1 hour following LPS administration. Five animals per treatment were used. Sera were frozen at −70° C. and analyzed as recommended by the manufacturer (ICN, USA).

CRH-R1 receptor [2] = biological target: T2, CRH-R1 receptor (Mus musculus, UniProt P35347); details: cited from earlier work
T2 construct: monocyte/macrophage cells which express both the CRH-R1 and the CRH-R2 receptors on the surface; endogenous in cells; host or cells: macrophages in vitro (RAW 264.7 or Balb/c peritoneal macrophages, inferred)
T2 sequence (P35347 24-415): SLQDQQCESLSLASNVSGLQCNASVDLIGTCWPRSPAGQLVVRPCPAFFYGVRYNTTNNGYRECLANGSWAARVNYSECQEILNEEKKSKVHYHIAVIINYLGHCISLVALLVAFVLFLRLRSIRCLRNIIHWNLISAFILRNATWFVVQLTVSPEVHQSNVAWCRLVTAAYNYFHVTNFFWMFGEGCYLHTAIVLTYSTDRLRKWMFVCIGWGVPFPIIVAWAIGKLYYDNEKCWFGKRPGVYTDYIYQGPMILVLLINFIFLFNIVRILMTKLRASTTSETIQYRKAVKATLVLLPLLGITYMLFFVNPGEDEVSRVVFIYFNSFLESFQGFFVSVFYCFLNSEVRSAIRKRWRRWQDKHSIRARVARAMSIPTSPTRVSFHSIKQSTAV

CRH-R1 receptor [3] = biological target: T3, CRH-R1 receptor (Rattus norvegicus, UniProt P35353); details: PC12 rat pheochromocytoma cells; cited from earlier work
T3 construct: endogenous in cells; host or cells: PC12 rat pheochromocytoma cells
T3 sequence (P35353 24-415): T2 sequence (P35347 24-415) with Q6R, S9N, A13T, I95V, Y229H

[4] = test system: thioglycollate-elicited peritoneal macrophages; test: Cytokine mRNA in thioglycollate-elicited peritoneal macrophages, RT-PCR; assay type: cell-based, Balb/c mice
Procedure: A 4% thioglycollate solution was prepared and autoclaved 2 days prior to administration. 1.5 ml of the thioglycollate solution was injected intraperitoneally in BALB/c mice and peritoneal macrophages were isolated by lavage of the peritoneal cavity with Dulbecco's Modified Medium. Cells were then cultured in DMEM supplemented with 10% FCS, 10 mM L-glutamine, 100 U/ml penicillin, 0.1 mg/ml streptomycin (Gibco). Cells were plated at a concentration of 5×10^5/ml and maintained in culture 24 hours prior to stimulation.
(§3) Total cellular RNA was isolated using Trizol reagent (Gibco). Following reverse transcription (Thermoscript RT, Invitrogen), 1 μl of the cDNA product was amplified by PCR at 33 cycles. […] Intensity of the bands was quantified using TINAscan software.
(§4) Primers for actin were: sense, 5′-TCAGAAGAACTCCTATGTGG-3′; antisense, 5′-TCTCTTTGATGTCACGCACG-3′, giving a 499 bp product; for Tnf-α were: 5′-CACGCTCTTCTGTCTACTGAACTTCG-3′; 5′-GGCTGGGTAGAGAATGGATGAACACC-3′, giving a 590 bp product; for IL-1β were 5′-GGATGAGGACATGAGCACCT-3′ and 5′-TCCATTGAGGTGGAGAGCTT-3′, resulting in a 196 bp product; for IL-6,5′-TGAAGTTCCTCTCTGCAAGAGACT-3′,5′-TGA GGA AGG CCG TGG TTG T-3′, giving a 200 bp product. […] The quantitation was performed using the “TI-NAscan” software. […]

RAW264.7 cells [5] = test: Cytokine mRNA in RAW264.7 cells, semi-quantitative RT-PCR; assay type: cell-based, mouse
Procedure: as §1, §3, §4

Balb/c mice = test: Determination of the LD50 of LPS i.p.; assay type: in vivo
[6] = test system: LPS-induced endotoxin shock in Balb/c mice; test: Serum proinflammatory cytokines (ELISA) in LPS-induced endotoxin shock; assay type: in vivo; details: for TNF-α level / IL-6 level / IL-1β level: antalarmin pre-treated vs LPS alone; for IL-6 level / IL-1β level: 4 hours after LPS; for IL-1β level: p=0.013
Procedure: as §2, with “Each” for “Serum from trunk blood was collected as follows: a) for the determination of TNF-α 1 hour after LPS administration and b) at 4 hours for the determination of IL-1β or IL-6 levels. Each”

[7] = test system: LPS-induced endotoxin shock in Balb/c mice
Procedure: Male 20- to 25-g Balb/c mice 8 to 10 weeks old were used. They were kept in our animal facility for at least one week prior to each experiment to allow adjustment and confirmation of their health. Each animal received rodent laboratory chow and water ad libitum. The CRH-R1 antagonist used was provided by the Pediatric and Reproductive Endocrinology Branch, NICHD, NIH, Bethesda, Md. Antalarmin was initially dissolved into 100% ethanol at a concentration of 200 mg/ml and then diluted in a 1:1 ratio with Cremaphor EL (Sigma), and finally brought to a working stock of 2 mg/ml antalarmin in 10% ethanol and 10% Cremaphor EL in sterile water. E coli lipopolysaccharide (serotype 0111:B4, cat. # L2630) and Salmonella enteritidis lipopolysaccharide (cat. # L6011) were purchased from Sigma. The antibodies and the reagents for the TNF-α, IL-1β and IL-6 determination were purchased from R&D (NE, USA).
For the determination of the LD50 groups composed of five mice were injected intraperitoneally (i.p) with either 200, 400, 600, 700 or 1000 μg/mouse of Salmonella-derived LPS (Sigma) dissolved in PBS at a concentration of 10 mg/ml. Survival of animals was monitored for a period of seven days. The same protocol was used for E. coli-derived LPS (O111:B4). To determine the effect of antalarmin in the survival of mice injected with LPS, 40 mice were divided in four different groups; the first group received antalarmin at a concentration of 20 mg/kg of body weight; the second received antalarmin at 20 mg/kg of body weight and LPS at a concentration of 0.7 mg per 25 g of body weight; the third group received LPS and the antalarmin diluent while the fourth group received the antalarmin diluent alone.

[8] = CRH 1×10^−8 M plus LPS 10 μg/ml, 24 hours, vs LPS alone, p=0.04

## Urocortin II (IVLSLDVPIGLLQILLEQARARAAREQATTNARILARVGHC; ends and bridges not checked; UniProt Q96RP3 72-112, looked up) [CRH-related peptide that induces macrophage apoptosis via the CRH-R2 receptor]
CRH-R2 receptor
  apoptosis on macrophages: induce apoptosis

## sauvagine-30
CRH-R2 receptor
  effect on Urocortin / Urocortin II induced macrophage apoptosis: completely abolishes

## corticotropin-releasing hormone [CRH]
RAW264.7 cells [1]; CRH 1×10^−8 M plus LPS 10 μg/ml, 24 hours, vs LPS alone, p=0.01
  LPS-induced IL-1β secretion: potentiates; also recorded: significantly augmented
RAW264.7 cells [1]; [8]
  LPS-induced IL-6 secretion: potentiates; also recorded: significantly augmented
  LPS-induced TNF-α secretion: significantly higher; also recorded: significantly augmented
RAW264.7 cells [1]; CRH 1×10^−8 M without LPS
  cytokine secretion, CRH alone: only a minimal effect
CRH-R1 receptor [2]; in vitro
  inflammatory response to lipopolysaccharide (LPS) of macrophages: enhances
CRH-R1 receptor [3]
  Fas ligand production: stimulates
  apoptosis: induces apoptosis
  p38 mitogen-activated protein kinase: activates
[4]; CRH plus LPS
  LPS-induced pro-inflammatory cytokine expression: augments; also recorded: significantly augmented
[4]; CRH without LPS
  TNF-α, IL-1β or IL-6 transcription, CRH alone: unable to induce
RAW264.7 cells [5]; CRH plus LPS, densitometry normalized versus actin
  LPS-induced cytokine transcription (IL-1β, TNF-α, IL-6 mRNA): further potentiates; also recorded: strongly augmented
RAW264.7 cells [5]; CRH without LPS
  transcription of IL-1β, TNF-α, or IL-6, CRH alone: induces expression; also recorded: minimal transcription

## Lipopolysaccharide [LPS]
Balb/c mice; LPS 0.2 mg/25 g i.p.
  animals survived: One hundred
Balb/c mice; LPS 0.4 mg/25 g i.p.
  animals survived: 80%
Balb/c mice; LPS 0.6 mg/kg i.p. (so in the source)
  animals survived: 40%
Balb/c mice; LPS 0.7 mg/25 g i.p.
  animals survived: none
Balb/c mice; LPS 1 mg/25 g i.p.
  animals survived: none
Balb/c mice; LPS i.p., mice
  LD100: ≥ 0.7 mg per 25 g of body weight
Balb/c mice; LPS i.p., mice, survival monitored seven days
  LD50: 0.5 mg per 25 g body weight

## CCCCN(CC)c1nc(C)nc2c1c(C)c(C)n2-c1c(C)cc(C)cc1C [antalarmin]
CRH-R1 receptor [2]; macrophages in vitro, LPS
  effect on the enhancing effect of CRH: blocked completely
[6]; 1 h after LPS, p=0.001
  TNF-α level: significantly reduced
[6]; 2 hours after LPS injection, p<0.001
  TNF-α level: significantly lower
[6]; p<0.001
  IL-6 level: significantly lower
[6]; p<0.001, listed as Antalarmin
  IL-6 level: significantly reduced
[6]
  IL-1β level: significantly lower
[6]; listed as Antalarmin
  IL-1β level: significantly reduced
[6]; 6 hours after LPS, p<0.001, value describes LPS alone relative to LPS plus antalarmin
  IL-6 level of LPS treated animals compared with LPS plus antalarmin treated mice: significantly higher
[6]; 6 hours after LPS, p<0.01, value describes LPS alone relative to LPS plus antalarmin
  IL-1β level of LPS treated animals compared with LPS plus antalarmin treated mice: significantly higher
CRH-R1 receptor [3]
  effect on CRH-mediated effects (p38, Fas ligand, apoptosis): blocks all
[7]; E coli-derived LPS 0.7 mg/25 g, antalarmin pre-treatment, all animals with LPS alone had died
  mice still alive at 18 h: 72%
[7]; E coli-derived LPS, in the presence of antalarmin, p=0.002, observed 7 days
  overall survival: significantly improved
[7]; Salmonella enteritidis-derived LPS 0.7 mg/25 g i.p., antalarmin 20 mg/kg IP 1.5 h prior to LPS, LPS alone 60%
  animals that had died at 18 hours: 20%
